Data from ChEMBL document CHEMBL5316318, “Structural Modification and Pharmacological Evaluation of Substituted Quinoline-5,8-diones as Potent NSD2 Inhibitors” (J Med Chem, 2023).
Activity calls are given as the source filed them. No cut-off for these calls is given here.

Assays:
[1] = target: T1, Histone-lysine N-methyltransferase NSD2 (Homo sapiens, UniProt O96028); experiment: Inhibition of recombinant human NSD2 (941 to 1240 residues) using SAM as substrate incubated for 3 hrs by AlphaLISA assay
T1 sequence (O96028 whole entry): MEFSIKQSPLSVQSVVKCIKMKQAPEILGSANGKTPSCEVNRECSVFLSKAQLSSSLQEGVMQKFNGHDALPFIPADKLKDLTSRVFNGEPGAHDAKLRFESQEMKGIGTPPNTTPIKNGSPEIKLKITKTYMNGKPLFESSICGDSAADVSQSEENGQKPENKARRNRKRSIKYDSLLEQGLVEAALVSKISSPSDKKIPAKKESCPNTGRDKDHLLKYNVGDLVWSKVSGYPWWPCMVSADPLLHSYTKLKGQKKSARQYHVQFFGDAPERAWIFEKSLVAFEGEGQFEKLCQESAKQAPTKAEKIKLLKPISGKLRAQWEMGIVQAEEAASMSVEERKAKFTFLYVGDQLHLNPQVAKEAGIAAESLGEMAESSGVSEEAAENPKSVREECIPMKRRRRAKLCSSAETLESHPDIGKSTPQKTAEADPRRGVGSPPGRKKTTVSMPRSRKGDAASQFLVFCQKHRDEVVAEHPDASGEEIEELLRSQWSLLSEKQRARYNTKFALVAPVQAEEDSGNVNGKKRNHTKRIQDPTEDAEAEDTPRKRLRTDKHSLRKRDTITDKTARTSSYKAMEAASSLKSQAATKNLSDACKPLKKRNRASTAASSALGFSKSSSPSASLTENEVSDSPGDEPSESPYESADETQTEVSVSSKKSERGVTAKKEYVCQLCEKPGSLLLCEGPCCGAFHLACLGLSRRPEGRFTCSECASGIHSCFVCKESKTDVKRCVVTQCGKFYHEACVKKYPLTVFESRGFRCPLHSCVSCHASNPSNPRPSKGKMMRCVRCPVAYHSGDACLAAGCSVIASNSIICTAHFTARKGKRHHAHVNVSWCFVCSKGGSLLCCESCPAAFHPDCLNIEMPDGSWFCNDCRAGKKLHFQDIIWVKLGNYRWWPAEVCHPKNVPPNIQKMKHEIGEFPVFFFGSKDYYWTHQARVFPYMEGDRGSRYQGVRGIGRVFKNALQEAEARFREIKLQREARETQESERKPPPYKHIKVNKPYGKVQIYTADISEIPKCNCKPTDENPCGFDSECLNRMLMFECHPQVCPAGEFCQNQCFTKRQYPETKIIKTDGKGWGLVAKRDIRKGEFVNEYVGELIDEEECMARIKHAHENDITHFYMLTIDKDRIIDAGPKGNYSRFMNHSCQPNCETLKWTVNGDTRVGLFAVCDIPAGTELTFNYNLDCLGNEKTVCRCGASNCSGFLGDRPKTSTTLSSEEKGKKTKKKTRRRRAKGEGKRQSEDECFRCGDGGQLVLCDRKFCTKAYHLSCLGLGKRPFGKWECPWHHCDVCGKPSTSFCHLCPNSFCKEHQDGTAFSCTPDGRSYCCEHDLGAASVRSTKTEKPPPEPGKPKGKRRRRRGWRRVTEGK

[2] = target: Histone-lysine N-methyltransferase, H3 lysine-36 specific (Homo sapiens, UniProt Q96L73); experiment: Inhibition of NSD1 (unknown origin)
Sequence of Histone-lysine N-methyltransferase, H3 lysine-36 specific (Q96L73 whole entry): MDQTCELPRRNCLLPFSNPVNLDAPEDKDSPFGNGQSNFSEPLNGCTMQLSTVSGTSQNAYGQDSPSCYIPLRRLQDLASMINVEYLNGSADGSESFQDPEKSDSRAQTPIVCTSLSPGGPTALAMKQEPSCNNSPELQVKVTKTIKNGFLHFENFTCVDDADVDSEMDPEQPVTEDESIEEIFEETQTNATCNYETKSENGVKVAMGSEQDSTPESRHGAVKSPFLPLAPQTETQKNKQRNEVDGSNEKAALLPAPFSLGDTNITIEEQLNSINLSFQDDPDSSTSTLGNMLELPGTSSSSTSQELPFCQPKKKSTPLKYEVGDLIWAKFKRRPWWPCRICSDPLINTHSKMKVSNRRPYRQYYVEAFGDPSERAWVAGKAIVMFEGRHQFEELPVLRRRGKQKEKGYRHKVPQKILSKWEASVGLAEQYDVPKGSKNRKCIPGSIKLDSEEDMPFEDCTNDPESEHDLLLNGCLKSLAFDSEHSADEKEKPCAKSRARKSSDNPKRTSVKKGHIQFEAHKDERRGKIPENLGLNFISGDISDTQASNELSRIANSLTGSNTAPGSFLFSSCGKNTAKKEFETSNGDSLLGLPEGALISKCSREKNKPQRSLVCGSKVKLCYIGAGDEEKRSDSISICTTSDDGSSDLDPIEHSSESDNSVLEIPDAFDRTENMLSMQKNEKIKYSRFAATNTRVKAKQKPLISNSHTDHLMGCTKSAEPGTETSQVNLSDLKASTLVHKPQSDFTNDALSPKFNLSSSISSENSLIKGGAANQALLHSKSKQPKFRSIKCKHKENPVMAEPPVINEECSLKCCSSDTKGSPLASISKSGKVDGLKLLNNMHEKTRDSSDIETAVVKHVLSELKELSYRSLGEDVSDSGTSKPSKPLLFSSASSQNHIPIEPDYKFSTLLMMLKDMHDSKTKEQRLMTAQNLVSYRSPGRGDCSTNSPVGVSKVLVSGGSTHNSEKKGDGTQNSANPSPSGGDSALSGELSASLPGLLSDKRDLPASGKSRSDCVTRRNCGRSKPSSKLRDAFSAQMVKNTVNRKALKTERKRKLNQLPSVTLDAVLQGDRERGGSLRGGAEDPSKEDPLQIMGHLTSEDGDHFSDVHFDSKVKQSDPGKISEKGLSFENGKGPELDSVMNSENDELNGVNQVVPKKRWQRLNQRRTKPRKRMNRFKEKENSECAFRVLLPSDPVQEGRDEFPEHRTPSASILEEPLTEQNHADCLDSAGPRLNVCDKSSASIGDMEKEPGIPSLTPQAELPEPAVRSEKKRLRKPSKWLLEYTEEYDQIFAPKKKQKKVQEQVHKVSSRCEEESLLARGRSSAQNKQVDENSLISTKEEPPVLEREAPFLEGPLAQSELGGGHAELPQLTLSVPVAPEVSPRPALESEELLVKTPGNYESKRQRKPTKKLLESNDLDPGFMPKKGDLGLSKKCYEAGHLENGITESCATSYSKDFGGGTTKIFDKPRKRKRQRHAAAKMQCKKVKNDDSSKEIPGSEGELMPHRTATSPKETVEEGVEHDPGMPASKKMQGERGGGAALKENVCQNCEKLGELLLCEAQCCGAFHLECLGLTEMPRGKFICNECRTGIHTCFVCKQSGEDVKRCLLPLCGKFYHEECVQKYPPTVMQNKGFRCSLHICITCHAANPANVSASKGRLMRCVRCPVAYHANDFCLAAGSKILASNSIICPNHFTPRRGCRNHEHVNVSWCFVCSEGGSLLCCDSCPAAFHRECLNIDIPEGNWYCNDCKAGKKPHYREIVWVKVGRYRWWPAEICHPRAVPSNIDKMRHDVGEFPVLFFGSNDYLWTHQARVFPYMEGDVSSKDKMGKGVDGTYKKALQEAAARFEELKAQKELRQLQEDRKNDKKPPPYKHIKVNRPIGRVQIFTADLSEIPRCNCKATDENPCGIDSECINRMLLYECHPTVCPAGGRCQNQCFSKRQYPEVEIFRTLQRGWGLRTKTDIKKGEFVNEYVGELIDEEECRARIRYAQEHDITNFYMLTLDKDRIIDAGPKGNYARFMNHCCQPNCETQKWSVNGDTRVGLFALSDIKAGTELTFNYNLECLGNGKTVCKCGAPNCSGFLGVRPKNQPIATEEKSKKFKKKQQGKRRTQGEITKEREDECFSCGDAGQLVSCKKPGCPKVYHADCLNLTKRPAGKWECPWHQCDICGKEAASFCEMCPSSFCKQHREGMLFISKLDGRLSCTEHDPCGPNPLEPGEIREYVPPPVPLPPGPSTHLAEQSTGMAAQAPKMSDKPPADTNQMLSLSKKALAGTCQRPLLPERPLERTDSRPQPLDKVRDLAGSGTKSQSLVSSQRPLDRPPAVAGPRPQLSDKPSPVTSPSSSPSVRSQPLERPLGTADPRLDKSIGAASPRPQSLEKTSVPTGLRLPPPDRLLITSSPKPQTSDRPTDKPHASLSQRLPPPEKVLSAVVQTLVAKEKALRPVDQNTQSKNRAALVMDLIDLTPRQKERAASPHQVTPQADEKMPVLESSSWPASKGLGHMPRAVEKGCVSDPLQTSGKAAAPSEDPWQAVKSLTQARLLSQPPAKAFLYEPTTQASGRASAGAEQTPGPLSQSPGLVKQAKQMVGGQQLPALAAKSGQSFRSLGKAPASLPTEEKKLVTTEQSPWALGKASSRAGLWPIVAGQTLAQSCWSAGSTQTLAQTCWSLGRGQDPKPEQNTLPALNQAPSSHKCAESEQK

[3] = target: Protein arginine N-methyltransferase 1 (Homo sapiens, UniProt Q99873); experiment: Inhibition of PRMT1 (unknown origin) by AlphaLISA assay
Sequence of Protein arginine N-methyltransferase 1 (Q99873 whole entry): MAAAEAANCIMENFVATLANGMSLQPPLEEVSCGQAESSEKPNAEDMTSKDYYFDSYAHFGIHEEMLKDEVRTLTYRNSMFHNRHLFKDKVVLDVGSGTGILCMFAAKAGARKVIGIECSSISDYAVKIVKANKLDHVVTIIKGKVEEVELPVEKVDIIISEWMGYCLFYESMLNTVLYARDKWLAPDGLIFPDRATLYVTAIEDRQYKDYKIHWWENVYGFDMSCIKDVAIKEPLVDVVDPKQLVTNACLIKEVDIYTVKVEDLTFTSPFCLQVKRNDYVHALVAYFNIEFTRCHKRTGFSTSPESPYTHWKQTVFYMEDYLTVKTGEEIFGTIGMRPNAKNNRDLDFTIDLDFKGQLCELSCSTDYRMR

[4] = target: Histone-arginine methyltransferase CARM1 (Homo sapiens, UniProt Q86X55); experiment: Inhibition of PRMT4 (unknown origin) by AlphaLISA assay
Sequence of Histone-arginine methyltransferase CARM1 (Q86X55 whole entry, the tested form may be a part): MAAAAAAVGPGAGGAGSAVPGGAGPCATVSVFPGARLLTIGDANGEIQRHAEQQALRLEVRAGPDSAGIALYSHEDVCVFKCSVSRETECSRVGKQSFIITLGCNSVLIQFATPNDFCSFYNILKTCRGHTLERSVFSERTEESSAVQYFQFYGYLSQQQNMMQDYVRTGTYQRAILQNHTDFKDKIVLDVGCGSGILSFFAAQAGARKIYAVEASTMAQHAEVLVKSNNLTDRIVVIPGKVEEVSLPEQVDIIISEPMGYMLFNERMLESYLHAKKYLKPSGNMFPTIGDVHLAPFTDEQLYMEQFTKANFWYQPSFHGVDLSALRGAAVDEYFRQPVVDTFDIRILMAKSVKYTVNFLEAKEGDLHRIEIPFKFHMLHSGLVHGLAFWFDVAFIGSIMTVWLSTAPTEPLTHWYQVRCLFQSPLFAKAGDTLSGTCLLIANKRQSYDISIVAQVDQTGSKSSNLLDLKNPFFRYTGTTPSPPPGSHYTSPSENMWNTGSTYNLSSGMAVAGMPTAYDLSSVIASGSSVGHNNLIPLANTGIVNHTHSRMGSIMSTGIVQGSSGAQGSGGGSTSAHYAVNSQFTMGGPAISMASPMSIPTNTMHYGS

[5] = target: Histone-lysine N-methyltransferase NSD2 (Homo sapiens) (UniProt O96028); experiment: Binding affinity to human recombinant NSD2 (941 to 1240 residues) at 200 uM by CPMG based NMR analysis
THP-1 = experiment: Antiproliferative activity against human THP-1 cells harboring wild type NSD2 assessed as inhibition of cell growth incubated for 6 days by CCK-8 assay; type: functional, cell-based; conditions: THP-1, 144 h
OCI-AML2 = experiment: Antiproliferative activity against human OCI-AML2 cells harboring wild type NSD2 assessed as inhibition of cell growth incubated for 6 days by CCK-8 assay; type: functional, cell-based; conditions: OCI-AML2, 144 h
[6] = Antiproliferative activity against human MINO cells assessed as inhibition of cell growth incubated for 6 days by CCK-8 assay; type: functional, cell-based; conditions: 144 h
KMS-11 [7] = experiment: Modulation of Hippo signaling pathway in human KMS-11 cells at 1 uM incubated for 48 hrs by RNA-Seq analysis; type: cell-based; conditions: filed as modulator
KMS-11 [8] = experiment: Modulation of FoxO signaling pathway in human KMS-11 cells at 1 uM incubated for 48 hrs by RNA-Seq analysis; type: cell-based; conditions: filed as modulator
[9] = target: Protransforming growth factor alpha (Homo sapiens) (UniProt P01135); experiment: Inhibition of TGFA transcriptional activation in human KMS-11 cells assessed as reduction in TGFA mRNA expression at 0.5 uM by qRT-PCR analysis; type: cell-based
Sequence of Protransforming growth factor alpha (Homo sapiens) (P01135 whole entry): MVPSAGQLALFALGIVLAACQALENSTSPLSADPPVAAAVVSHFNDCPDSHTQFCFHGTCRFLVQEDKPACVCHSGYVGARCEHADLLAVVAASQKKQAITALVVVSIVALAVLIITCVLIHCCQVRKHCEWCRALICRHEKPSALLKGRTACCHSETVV

[10] = target: Basement membrane-specific heparan sulfate proteoglycan core protein (Homo sapiens) (UniProt P98160); experiment: Inhibition of HSPG2 transcriptional activation in human KMS-11 cells assessed as reduction in H3K36me2 level in promoter region by ChIP-qPCR analysis; type: cell-based
KMS-11 [11] = experiment: Induction of apoptosis in human KMS-11 cells assessed as live cells at 0.2 uM incubated for 72 hrs by Annexin V-FITC/PI staining based flow cytometry analysis (reference value: 83.1%); type: functional
KMS-11 [12] = experiment: Induction of apoptosis in human KMS-11 cells assessed as early apoptotic cells at 0.2 uM incubated for 72 hrs by Annexin V-FITC/PI staining based flow cytometry analysis (reference value: 3.96%); type: functional
KMS-11 [13] = experiment: Induction of apoptosis in human KMS-11 cells assessed as dead cells at 0.2 uM incubated for 72 hrs by Annexin V-FITC/PI staining based flow cytometry analysis (reference value: 6.48%); type: functional
KMS-11 [14] = experiment: Induction of apoptosis in human KMS-11 cells assessed as live cells at 0.5 uM incubated for 72 hrs by Annexin V-FITC/PI staining based flow cytometry analysis (reference value: 83.1%); type: functional
KMS-11 [15] = experiment: Induction of apoptosis in human KMS-11 cells assessed as early apoptotic cells at 0.8 uM incubated for 72 hrs by Annexin V-FITC/PI staining based flow cytometry analysis (reference value: 3.96%); type: functional
KMS-11 [16] = experiment: Induction of apoptosis in human KMS-11 cells assessed as late apoptotic cells at 0.8 uM incubated for 72 hrs by Annexin V-FITC/PI staining based flow cytometry analysis (reference value: 6.47%); type: functional
KMS-11 [17] = experiment: Induction of apoptosis in human KMS-11 cells assessed as downregulation of BCL-XL protein expression at 0.2 to 0.8 uM by Western blot analysis; type: functional, cell-based; conditions: dose 0.2-0.8 µM
[18] = Toxicity in SCID mouse xenografted with human KMS-11 cells assessed as adverse effects at 75 to 150 mg/kg, po administered daily for 21 days and measured every 3 days; type: organism-based; conditions: in vivo, 504 h, dose 75-150 mg/kg, time 21 day

CC#CC(=O)NC12CC(NC3=C(Cl)C(=O)c4ncccc4C3=O)(C1)C2
IC50 [1]: 230 nM
IC50 [2]: 690 nM
IC50 [3]: > 10000 nM
IC50 [4]: > 10000 nM
Activity [5]: Active
IC50 (THP-1): 2640 nM
IC50 (OCI-AML2): 2600 nM
IC50 [6]: 9900 nM
Activity (KMS-11 [7]): Active
Activity (KMS-11 [8]): Active
inhibition [9]: Active
inhibition [10]: Active
Activity (KMS-11 [11]): 81.3%
Activity (KMS-11 [12]): 4.34%
Activity (KMS-11 [13]): 6.54%
Activity (KMS-11 [14]): 63.8%
Activity (KMS-11 [15]): 19.3%
Activity (KMS-11 [16]): 19.7%
Activity (KMS-11 [17]): Active
Activity [18]: Non-Toxic
